Assays:
[1] = test system: MRC-5 cell line (diploid human embryonic lung fibroblast); assay: Cytotoxicity on MRC-5 cells; type: cell-based
Description: [table] An important part of the screen is the evaluation of all compounds for cytotoxicity using the diploid human embryonic lung fibroblast MRC-5 cell line (Figure 2). Further evaluation of cytotoxicity also takes advantage of the assays for intracellular protozoan parasites, as in the case of L. infantum and T. cruzi, which include murine peritoneal macrophage host cells and MRC-5SV2 human lung fibroblast cells, respectively, in the culture system.

[2] = test system: Plasmodium falciparum K1 strain; assay: Anti-Plasmodium activity assay (Malstat); type: cell-based; conditions: P. falciparum K1, 72 h
Protocol: (§1) The compound set was tested against the following parasites: intra-erythrocytic forms in human red blood cells of P. falciparum K1 strain (malaria), [16], [32], [33], [35], bloodstream forms of T. brucei Squib 427 strain (human African trypanosomiasis, HAT), [31], [32], [34], intracellular amastigotes of T. cruzi Tulahuen CL2, beta- galactosidase strain (Chagas' Disease), [32]–[35], intracellular amastigotes of L. infantum MHOM/MA(BE)/67 (leishmaniasis), [32]–[36], larval and/or adult worms of S. mansoni Puerto Rican strain (schistosomiasis), [31], [37], microfilariae of B. malayi (lymphatic filariasis), [30] and microfilariae of O. ochengi or O. lienalis (onchocerciasis), [30]. It should be noted that the human pathogen for onchocerciasis is Onchocerca volvulus, but due to lack of a suitable in vitro assay or animal models for this pathogen, O. ochengi and lienalis, which are both animal pathogens, are used in the primary and secondary assays, [30].

[3] = test system: Trypanosoma cruzi, Tulahuen CL2 strain; assay: Antitrypanosomal activity assay, T. cruzi in MRC-5 cells; type: cell-based; conditions: T. cruzi Tulahuen CL2 in MRC-5 cells, 7 days
Protocol: as §1
171 of the 744 actives passed the initial criterion of IC50<1 µg/ml for T. cruzi Tulahuen CL2, beta galactosidase strain maintained on MRC-5SV2 cells in MEM medium (MRC-5 cell/parasite inoculum: 4.10^3 cells/well+4.10^4 parasites/well), supplemented with […] L-glutamine, 16.5 mM NaHCO3 and 5% heat inactivated fetal calf serum. […] Of these, 109 were eliminated [structures #1–6] for poor selectivity versus mammalian cells (SI<50) and an additional 11 due to undesirable chemical attributes. The remaining 51 compounds were sorted into 10 series (45 compounds) and 6 singletons [structures # 21, 22]. Two of these series with excellent potency against T. cruzi, limited activity against other protozoa and SI values >50 (not shown), have been transferred to DNDi for further evaluation.

[4] = test system: Schistosoma mansoni adult worms; assay: Anti-Schistosoma activity assay (adult worm motility); type: cell-based; conditions: S. mansoni adult worms; 12.5 µM (method: 10 µg/ml or 12.5 µM)
Protocol: as §1
A subset of 9478 of the 10,000 compound collection was tested against the Puerto Rican strain of S. mansoni. 6144 of these were tested in a primary larval assay followed by the ex-vivo adult secondary screen. The remainder was screened only in the adult assay. […] The 65 compounds were sorted by chemical attractiveness, potency against adult schistosomes in culture, selectivity against other parasites, and toxicity to mammalian cells in culture. Based on this analysis, 5 series encompassing 13 compounds were chosen for advancement through the African Network for Drug and Diagnostic Innovation (ANDI) and other PDPs. Representative structures [structures # 13, 27, 28] are shown (Table S1). These compounds are unburdened by obvious toxic moieties, have acceptable compliance with the Lipinski rules, are selectively active against schistosomes and are not overtly toxic to mammalian cells. It has unfortunately not been possible to titrate all of these hits in culture; of about 50% for which such data are available, none has an IC50<2 µg/ml (which is the initial potency criteria).

[5] = test system: Onchocerca (lienalis or ochengi) microfilariae; assay: Anti-Onchocerca microfilariae motility assay; type: cell-based, Onchocerca lienalis or O. ochengi
Protocol: as §1
(§2) 4240 compound s were screened against O. ochengi at the University of Buea in Cameroon, while a subset of […] compounds was successfully screened in UK by the Northwick Park Institute for Medical Research against O. lienalis, at a uniform molarity. […] After removing molecules that were toxic to mammalian cells (IC50<5 µg/ml), 292 molecules remained for further evaluation. […] From the latter sub-set, […] distinct chemical series and one singleton [structure # 35] were active against both microfilaria and adults. One series [structures # 2, 3] was deemed not interesting due to lack of selectivity against mammalian cells. The remaining series is being transferred to ANDI for further progression as part of a new collaboration.

Onchocerca adult worms = type: cell-based
Description: In some cases, particularly for the antifilarial screens, a second whole organism test with adult stage parasites is included prior to animal evaluation. The decision to utilize microfilariae for primary screening was based on throughput and biological considerations. It is difficult to acquire enough adult filariae to enable screening more than 1000 compounds per year, a rate far lower than needed for timely evaluation of the available compounds. In light of this situation, and considering that we are targeting molecules that are active on both stages, microfilariae screening was adopted as a suitable filter to identify compounds with potential macrofilaricidal activity.
as §2

[6] = test system: Trypanosoma brucei brucei Squib-427 strain; assay: Antitrypanosomal activity assay, T. brucei (resazurin); type: cell-based; conditions: T. brucei Squib 427 bloodstream forms, 72 h
Protocol: as §1

With `Cc1cc(NC(=O)CSc2ccc3nnc(-c4cccs4)n3n2)no1` [TDR78826] the “CYT IC50” value [1] was greater than 11.17 µg/mL, the “MAL IC50” value [2] was 0.16 µg/mL and the “CHA IC50” value [3] was 4.97 µg/mL. The “SCH % Motility Reduction at 12.5µM” value [4] was 0%, the “ONC/MF % Motility Reduction at 12.5µM” value [5] was 6.7% and the “ONC/AW % worm Mortality @ 12.5µM” value (Onchocerca adult worms) was 0%.
For `CCCc1cc(=O)[nH]c(-n2nc(C)cc2NC(=O)C23CC4CC(CC(C4)C2)C3)n1` [TDR79936], the “CYT IC50” value [1] was less than 0.12 µg/mL, the “MAL IC50” value [2] was less than 0.12 µg/mL and the “CHA IC50” value [3] was less than 0.12 µg/mL. For the same compound, the “HAT IC50” value [6] was less than 0.12 µg/mL, the “SCH % Motility Reduction at 12.5µM” value [4] was 100% and the “ONC/MF % Motility Reduction at 12.5µM” value [5] was 100%. The “ONC/AW % worm Mortality @ 12.5µM” value (Onchocerca adult worms) was 75%.
With `CSCc1csc(NC(=O)Cc2ccc(Cl)cc2)n1` [TDR81206] the “CYT IC50” value [1] was 3.7 µg/mL, the “MAL IC50” value [2] was 5.98 µg/mL and the “CHA IC50” value [3] was 2.47 µg/mL. The “HAT IC50” value [6] was 3.0 µg/mL, the “SCH % Motility Reduction at 12.5µM” value [4] was 0% and the “ONC/MF % Motility Reduction at 12.5µM” value [5] was 100%. For the same compound, the “ONC/AW % worm Mortality @ 12.5µM” value (Onchocerca adult worms) was 75%.
